Measured values: PubChem BioAssay (NCI)
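Grown in 96-well plates, cells were treated for 48 hours with each compound at five concentrations. Insufficient inhibition: endpoint recorded as highest concentration tested. The concentration for 50% growth inhibition is given as GI50. TGI marks complete inhibition of growth.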

Legend:
Experiment in all cases: inhibition of tumour cell growth, NCI panel, 48 h
HCC-2998 colon = system: HCC-2998 colon
HL-60(TB) leukemia = system: HL-60(TB) leukemia
HT29 colon = system: HT29 colon
IGROV1 ovarian = system: IGROV1 ovarian
NCI-H226 lung = system: NCI-H226 lung
OVCAR-3 ovarian = system: OVCAR-3 ovarian
OVCAR-8 ovarian = system: OVCAR-8 ovarian
PC-3 prostate = system: PC-3 prostate
SF-295 CNS = system: SF-295 CNS
SN12C renal = system: SN12C renal

Row | Structure (SMILES) | GI50 (HCC-2998 colon) | TGI (HCC-2998 colon) | GI50 (HL-60(TB) leukemia) | TGI (HL-60(TB) leukemia) | GI50 (HT29 colon) | TGI (HT29 colon) | GI50 (IGROV1 ovarian) | TGI (IGROV1 ovarian) | GI50 (NCI-H226 lung) | TGI (NCI-H226 lung) | GI50 (OVCAR-3 ovarian) | TGI (OVCAR-3 ovarian) | GI50 (OVCAR-8 ovarian) | TGI (OVCAR-8 ovarian) | GI50 (PC-3 prostate) | TGI (PC-3 prostate) | GI50 (SF-295 CNS) | TGI (SF-295 CNS) | GI50 (SN12C renal) | TGI (SN12C renal)
1 | C=CC(=O)Nc1cc(N2CCN(CC)CC2)ccc1Nc1cc(N(C)C(=O)Nc2c(Cl)c(OC)cc(OC)c2Cl)ncn1 | 2.49 µM | 6.3 µM | 4.91 µM | 25.3 µM | 2.24 µM | 5.29 µM | 2.58 µM | 7.35 µM | 14.2 µM | 35.8 µM | 3.49 µM | 15.4 µM | 4.38 µM | 18.1 µM | 5.05 µM | 20.8 µM | 16.7 µM | 31.8 µM | 2.84 µM | 9.72 µM
2 | C#Cc1nc2ccccc2c(=O)[nH]1 | 1.6 µM | 3.11 µM | 0.26 µM | 0.807 µM | 0.428 µM | 1.64 µM | 0.585 µM | 1.7 µM | 0.513 µM | 11.7 µM | 0.262 µM | 0.643 µM | 0.897 µM | 8.19 µM | 0.674 µM | 2.54 µM | 3.72 µM | 20.2 µM | 0.331 µM | 1.26 µM
3 | OCc1ccc(-c2cscc2-c2ccc(CO)o2)o1 | 24.2 µM | > 96.6 µM | > 100 µM | > 100 µM | 7.03 µM | > 100 µM | 0.576 µM | 6.47 µM | 0.112 µM | 0.485 µM | 4.04 µM | 30.6 µM | 29.9 µM | > 100 µM | > 75 µM | > 100 µM | 0.923 µM | 20.3 µM | > 100 µM | > 100 µM
4 | Cc1ccc(S(=O)(=O)c2nc(-c3ccccc3)oc2S(C)=O)cc1 (stereo unspecified) | 16.4 µM | 30.4 µM | 1.52 µM | 4.71 µM | 1.81 µM | 5.03 µM | – | – | 1.96 µM | 4.73 µM | 1.03 µM | 2.35 µM | 1.77 µM | 3.79 µM | 2.03 µM | 4.45 µM | 10 µM | 22.2 µM | 1.68 µM | 3.43 µM
5 | COc1ccc(C(=O)NNc2nc(Cl)nc(N3CCN(C(c4ccccc4)c4ccccc4)CC3)n2)cc1 | 1.49 µM | 2.89 µM | 2.54 µM | 10.5 µM | – | – | 1.67 µM | 3.11 µM | 18.9 µM | 45.1 µM | 1.89 µM | 3.45 µM | 1.89 µM | 4.36 µM | 1.74 µM | 3.59 µM | 16 µM | 30.6 µM | 1.71 µM | 3.19 µM
6 | O=c1[nH]c2nc(NC3CCOCC3)ncc2cc1Oc1ccc(F)cc1F | > 25 µM | > 25 µM | > 25 µM | > 25 µM | > 25 µM | > 25 µM | > 25 µM | > 25 µM | > 25 µM | > 25 µM | > 25 µM | > 25 µM | > 25 µM | > 25 µM | > 25 µM | > 25 µM | > 25 µM | > 25 µM | > 25 µM | > 25 µM
